In ChEMBL document CHEMBL1201862, “PubChem BioAssay data set” (2004):
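Protocol summary: plate cells (96-well), add compound at 5 concentrations, incubate 48 h, interpolate endpoints linearly. Here, GI50 denotes the concentration required for 50% inhibition of growth.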 Active and inactive are the calls of the source. Rule as the data show it: active = GI50 up to about 1.1 µM and inactive = higher.

What was measured:
Assay in all cases: NCI tumour cell line growth inhibition, 48 h
[1] = system: MOLT-4
[2] = system: SR
[3] = system: SNB-78
[4] = system: TK-10
[5] = system: HCC 2998
[6] = system: U-251
[7] = system: 786-0
[8] = system: M14
[9] = system: SK-MEL-28
[10] = system: SF-539
[11] = system: SK-OV-3
[12] = system: HOP-18
[13] = system: UACC-257
[14] = system: HOP-92
[15] = system: OVCAR-3
[16] = system: UO-31
[17] = system: UACC-62
[18] = system: DMS-273
[19] = system: HT-29

Measured: GI50

N=C(NNS(=O)(=O)c1ccccc1)Oc1ccc(Cl)cc1
inactive: [1] 68.5 µM | [2] 43.1 µM | [3] > 100 µM | [4] > 100 µM | [5] > 100 µM | [6] 60.3 µM | [7] 44.3 µM | [8] > 100 µM | [9] > 100 µM | [10] > 100 µM | [11] > 100 µM | [12] > 100 µM | [13] > 100 µM | [14] > 100 µM | [15] 78.5 µM | [16] > 100 µM | [17] 59.8 µM | [18] > 100 µM | [19] > 100 µM

COC[C@@H](Cc1ccc(OC)c(OC)c1)[C@@H](COC)Cc1ccc(OC)c(OC)c1
inactive: [1] 60.3 µM | [2] 95.3 µM | [3] > 100 µM | [4] > 100 µM | [5] > 100 µM | [6] > 100 µM | [8] > 100 µM | [9] > 100 µM | [10] > 100 µM | [11] > 100 µM | [12] > 100 µM | [13] > 100 µM | [14] 57.9 µM | [15] > 100 µM | [16] > 100 µM | [17] > 100 µM | [18] 76.6 µM | [19] > 100 µM

Nc1nnc(CCC(=O)Nc2cc(Cl)ccc2Cl)n1N
inactive: [1] > 100 µM | [2] > 100 µM | [3] > 100 µM | [4] > 100 µM | [5] > 100 µM | [6] > 100 µM | [8] > 100 µM | [9] > 100 µM | [10] > 100 µM | [11] > 100 µM | [12] > 100 µM | [13] > 100 µM | [14] > 100 µM | [15] > 100 µM | [16] > 100 µM | [17] > 100 µM | [18] > 100 µM | [19] > 100 µM

CC(C)(Br)C1(O)CCCN1C(=O)c1ccccc1 (stereo unspecified)
inactive: [1] > 100 µM | [2] > 100 µM | [3] > 100 µM | [4] > 100 µM | [5] > 100 µM | [6] > 100 µM | [8] > 100 µM | [9] > 100 µM | [10] > 100 µM | [11] > 100 µM | [12] > 100 µM | [13] > 100 µM | [14] > 100 µM | [15] > 100 µM | [16] > 100 µM | [17] > 100 µM | [18] > 100 µM | [19] > 100 µM

C/C(=N/NS(=O)(=O)c1ccc([N+](=O)[O-])cc1)c1cccc[n+]1[O-]
inactive: [1] > 100 µM | [2] > 100 µM | [3] > 100 µM | [4] > 100 µM | [5] > 100 µM | [6] > 100 µM | [7] > 100 µM | [8] > 100 µM | [9] > 100 µM | [10] > 100 µM | [11] > 100 µM | [12] > 100 µM | [13] > 100 µM | [14] > 100 µM | [15] > 100 µM | [16] > 100 µM | [17] > 100 µM | [18] > 100 µM | [19] > 100 µM

COC(=O)/C([Se]c1c(C)cc(C)cc1C)=C(\[Se]c1c(C)cc(C)cc1C)C(=O)OC
inactive: [1] > 100 µM | [2] > 100 µM | [3] > 100 µM | [4] > 100 µM | [5] > 100 µM | [6] > 100 µM | [7] > 100 µM | [8] > 100 µM | [10] > 10 µM | [11] > 100 µM | [12] > 100 µM | [13] > 100 µM | [14] > 100 µM | [15] > 100 µM | [16] > 100 µM | [17] > 100 µM | [18] > 100 µM | [19] > 100 µM

C=C(c1ccccc1)C1(O)CCCCC1N (stereo unspecified)
inactive: [1] 31.8 µM | [2] 30.3 µM | [3] > 100 µM | [4] > 100 µM | [5] > 100 µM | [6] > 100 µM | [7] > 100 µM | [8] > 100 µM | [9] > 100 µM | [10] > 100 µM | [11] > 100 µM | [12] > 100 µM | [13] > 100 µM | [14] > 100 µM | [15] > 89.5 µM | [16] > 100 µM | [17] > 100 µM | [18] > 100 µM | [19] > 100 µM

Cc1c(N(Cc2ccccc2)Cc2ccccc2)nc(S(C)(=O)=O)nc1S(C)(=O)=O
inactive: [1] 2.11 µM | [2] 1.58 µM | [3] 2.2 µM | [4] 4.2 µM | [5] 1.79 µM | [6] 2.53 µM | [8] 2.14 µM | [10] 13 µM | [11] 14.4 µM | [12] 4.99 µM | [13] 2.09 µM | [14] 3.56 µM | [15] 1.86 µM | [16] 12.1 µM | [17] 1.71 µM | [18] 2.2 µM | [19] 1.94 µM
